One data set addresses IDO (Homo sapiens, UniProt P14902). In words: Inhibition of IFN-γ induced IDO activity in Hela cells. Type of data set: cell-based. The settings on record: Hela cell lines (FIGS. 7A, 7B).
Another data set relates to Hela cells. The experiment in a line: alamarBlue cell proliferation (cytotoxicity) assay, Hela. The settings on record: 100 nM, 2 days incubation. Type of data set: cell-based. As for the experimental part: (§1) FIGS. 6A-6C. Cell viability study of HuMEC cells, MCA-MB-231 cells, and Hela cells, respectively, incubated with 100 nM of IDO inhibitors. After 2 days of incubation, alamarBlue cell viability reagent was added to cells and the fluorescence intensity (arbitrary fluorescent units) was measured after 3 hours incubation (n=4). Cytotoxicity of four IDO inhibitors toward different cell lines was evaluated with a cell proliferation assay using alamarBlue cell viability reagent. Hela cells were cultured in EMEM medium (ATCC 30-2003) containing 10% FBS, MDA-MB-231 and MCF-7 were cultured in RPMI-1640 Medium containing 10% FBS, while HuMEC cells were cultured in HuMEC medium (ATCC 12752-010). The cell proliferation assay included the following: harvesting of the cells by trypsinization and adding culture media to adjust to 10000 cell/mL; add 0.2 mL of cell suspension to each well and incubated at 37° C. in 5% CO2 atmosphere for 2 days; adding 1 μL of inhibitor solution (0.1 mM in DMSO) into growth media (1 mL) to get growth media w/inhibitor; aspirating spent growth medium from the wells and adding 200 μL of growth media w/ inhibitors and incubating at 37° C. in 5% CO2 atmosphere for 2 days; adding 20 μL of the alamarBlue (Invitrogen) into each well; incubating for addition 3 hours at 37° C. in 5% CO2 atmosphere; and reading the fluorescence intensity of each well with a plate reader (excitation, 544 nm; Emission 595 nm). The fluorescent signal is linear to the number of living cells.
(In general: The colour change of resazurin is a common sign of viable cells or microbes.)

In another data set the test system is HuMEC cells. The experiment in a line: alamarBlue cell proliferation (cytotoxicity) assay, HuMEC. Type of data set: cell-based. The settings on record: 100 nM, 2 days incubation. As for the experimental part: as §1
Another data set deals with MDA-MB-231 cells. In words: alamarBlue cell proliferation (cytotoxicity) assay, MDA-MB-231. The settings on record: 100 nM, 2 days incubation. Type of data set: cell-based. As for the experimental part: as §1
A further data set relates to MCF-7 cells. In words: alamarBlue cell proliferation (cytotoxicity) assay, MCF-7. Type of data set: cell-based. The following applies: 100 nM, 2 days incubation. As for the experimental part: as §1
For data set [1] the following is noted: via oral administration; cited from earlier work.
The target of a further data set is T1, tumor IDO expression (Mus musculus, UniProt P28776).
T1 construct: from tissue; host or cells: living CLL tumor mice (whole-animal microPET/CT)
T1 sequence (P28776 whole entry): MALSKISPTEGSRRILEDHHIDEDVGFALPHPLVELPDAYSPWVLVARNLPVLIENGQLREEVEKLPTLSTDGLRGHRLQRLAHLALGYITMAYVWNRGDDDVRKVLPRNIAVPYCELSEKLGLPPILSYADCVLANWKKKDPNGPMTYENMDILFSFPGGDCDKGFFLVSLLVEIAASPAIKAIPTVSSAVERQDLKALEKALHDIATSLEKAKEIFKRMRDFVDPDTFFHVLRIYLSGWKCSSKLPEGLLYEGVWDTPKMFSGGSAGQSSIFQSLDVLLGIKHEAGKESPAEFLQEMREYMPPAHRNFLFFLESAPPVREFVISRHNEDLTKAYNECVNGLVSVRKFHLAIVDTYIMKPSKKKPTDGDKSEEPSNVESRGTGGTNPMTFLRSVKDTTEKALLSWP
In words: microPET/CT imaging of CLL mouse model versus wild-type mouse. Type of data set: in vivo. The following applies: imaged 1 hour after i.p. injection of the probe; CLL tumor mice vs wild-type mice. As for the experimental part: Mice were imaged 1 hour after i.p. injection of the probe.

Where only a bound is given, the exact number is not on record here.

Sequence of IDO (P14902 whole entry): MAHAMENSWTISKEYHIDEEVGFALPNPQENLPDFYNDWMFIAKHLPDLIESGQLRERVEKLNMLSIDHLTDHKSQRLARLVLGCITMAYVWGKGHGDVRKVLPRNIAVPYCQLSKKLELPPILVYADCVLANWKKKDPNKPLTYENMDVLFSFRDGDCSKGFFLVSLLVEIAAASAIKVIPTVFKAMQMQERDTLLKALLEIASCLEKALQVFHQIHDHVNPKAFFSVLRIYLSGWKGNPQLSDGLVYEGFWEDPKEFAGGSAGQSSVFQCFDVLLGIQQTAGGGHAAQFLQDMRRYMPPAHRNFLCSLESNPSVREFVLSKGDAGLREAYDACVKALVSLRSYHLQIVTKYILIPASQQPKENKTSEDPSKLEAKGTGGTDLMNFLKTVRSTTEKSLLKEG

For the compound `ON=C(Nc1ccc(F)c(Cl)c1)c1nonc1NCCF` [IDO4-9], the “Inhibition of IDO activity” value on IDO is reported as “inhibited”. For the same compound, the Cytotoxicity result in the data set with Hela cells, in the data set on HuMEC cells, in the data set on MDA-MB-231 cells and in the data set on MCF-7 cells was “no cytotoxicity” throughout.
Take `Nc1nonc1C(=NO)Nc1ccc(F)c(Cl)c1` [IDO5L, 4-Amino-N-(3-chloro-4-fluorophenyl)-N′-hydroxy-1,2,5-oxadiazole-3-carboximidamide]: the “Inhibition of IDO activity” value on IDO is recorded as “inhibited”. The Cytotoxicity result in the data set on Hela cells, with HuMEC cells, with MDA-MB-231 cells and in the data set with MCF-7 cells was “no cytotoxicity” in each case. In addition, in data set [1], the “t½ (clearance rate)” value is below 30 min.
With `O=C(Cc1ccc(F)cc1)Nc1nonc1/C(=N/O)Nc1ccc(F)c(Cl)c1` [IDO5], the “Inhibition of IDO activity” value on IDO is on record as “inhibited”.
`O=C(Nc1nonc1/C(=N/O)Nc1ccc(F)c(Cl)c1)c1ccc(F)cc1` [IDO6]: the “Inhibition of IDO activity” value at IDO is “inhibited”. Also, the Cytotoxicity result with Hela cells, with HuMEC cells, with MDA-MB-231 cells and in the data set with MCF-7 cells was “no cytotoxicity” in each case.
With `O/N=C(\Nc1ccc(F)c(Cl)c1)c1nonc1NCCO/N=C\c1ccc(F)cc1` [IDO7], the “Inhibition of IDO activity” value on IDO is reported as “inhibited”.
Turning to `Nc1nonc1/C(=N/O)Nc1ccc([18F])c(Cl)c1` [^18F-IDO5L, [18F] 4-amino-N-(3-chloro-4-fluorophenyl)-N′-hydroxy-1,2,5-oxadiazole-3-carboximidamide], the “microPET/CT detection of tumor IDO expression” value at tumor IDO expression was “distinguishes IDO-positive chronic lymphocytic leukemia (CLL) mouse model and wild-type mouse in vivo”.

(Values after patent US10183082B2, “PET probes of radiofluorinated carboximidamides for IDO-targeted imaging” (H. LEE MOFFITT CANCER CENTER AND RESEARCH INSTITUTE, INC., priority 2014, dated 2019).)
